Here are results for 6 compounds from patent US11844779B2, “PKC-Delta-I inhibitor formulations and uses thereof” (University of South Florida, priority 2016, dated 2023).

Data set [1] concerns the target T1, PKCδI (Mus musculus, UniProt P28867).
T1 construct: endogenous in cells; host or cells: 3T3L1 (differentiating pre-adipocytes, day 1; mature adipocytes, day 6)
In words: Western blot on differentiating 3T3L1 cells (inhibitors added day 1 of differentiation). The data set is classed as cell-based. As to conditions: 3T3L1, inhibitors added day 1 of differentiation, 24 h; for cleavage and release of the PKCδI catalytic domain: C-terminal PKCδ antibody. The protocol: The compounds identified from the docking modeling were tested for their ability to inhibit PKCδI. 3T3L1 cells were plated in 60 mm dishes and differentiated. PKCδI regulates cell cycle during differentiation of pre-adipocytes to adipocytes. The inhibitors were added on day 1 of differentiation during mitotic clonal expansion when PKCδI expression is high (18). After 24 h, the cells were harvested and western blot analysis was performed on whole cell lysates.

For data set [2], the target named is T1, PKCδI. The experiment in a line: Western blot on mature adipocytes (inhibitors added day 6 of differentiation). It counts as cell-based. The note with it: for phosphorylation of myelin basic protein (PKCδI substrate) / cleavage and release of the PKCδI catalytic domain: mature adipocytes, inhibitors added day 6 of differentiation, 24 h; for cleavage and release of the PKCδI catalytic domain: C-terminal PKCδ antibody. The protocol: Next, compounds 5139627, 5320091, 72950115, 28578828, 61397826 and 43844983 were tested on mature adipocytes. The inhibitors were added on day 6 of differentiation when the adipocytes are lipid laden. After 24 h, the cells were harvested and western blot analysis was performed on whole cell lysates.

In data set [3] the target is T2, PKCδI (Homo sapiens, UniProt Q05655). In words: In vitro kinase assay with recombinant PKCδI and SC35 as substrate. It counts as biochemical. The note with it: 10 nM, 30 min incubation prior to assay, phosphatidyl serine and ATP. How it is done:
Next, in vitro kinase assays were performed with recombinant proteins PKCδI and SC35 (as substrate) in a kinase buffer containing phosphatidyl serine and ATP; with and without 10 nM 5139627, 28578828 (30 min incubation prior to assay).

Data set [4] has as its target T2, PKCδI. In words: PKC kinase activity kit, colorimetric assay (ENZO). It counts as biochemical. As to conditions: run in triplicate. The protocol: (§1) Briefly, a Protein Kinase C (PKC) kinase activity kit was used and a colorimetric assay (ENZO; run in triplicate) was performed. Relative kinase activity was calculated as (average absorbance of PKC isozyme−Average absorbance of blank)/quantity of pure kinase used per assay.

For a further data set, the system named is other PKCs. The experiment in a line: PKC kinase activity kit, colorimetric assay (ENZO), other PKC isozymes. The data set is classed as biochemical. As to conditions: run in triplicate. The protocol:
as §1

The subject of another data set is obese adipocytes. In words: WST-1 assay for cell viability. It counts as cell-based. As to conditions: 10 nM. How it is done: A WST-1 assay performed using obese adipocytes treated with 513627 to evaluate toxicity of compound 513627. Briefly, obese adipocytes were treated with 10 nM of compound 513627 and a WST-1 assay for cell viability was performed. FIG. 5 represents data from four experiments.
On the technique in general: Formazan colour is commonly taken as a measure of viable cells.

The next data set has as its target T3, PKCδVIII (Homo sapiens, UniProt Q05655).
T3 construct: adipocytes from the obese donor were treated with about 10-100 nM NP627; endogenous in cells; host or cells: primary human adipocytes from visceral adipose tissue of an obese donor
In words: Western blot on adipocytes from obese donor, PKCδVIII. The data set is classed as cell-based. The note with it: about 10-100 nM, about 24 h. An excerpt:
(§2) The C-terminal fragment of PKCδI phosphorylates its substrates that mediate expression of pro-apoptotic proteins. For a functional read-out, an assay was designed to measure: (1) Bcl-xL switching to its pro-apoptotic variant Bcl-xS and (2) Caspase9b switching to its pro-apoptotic variant caspase 9a. Briefly, adipocytes were freshly isolated from human visceral adipose tissue of lean and obese donors (IRB #20295; lean BMI 22.1 and 23; obese BMI 43.7 and 44.3; non-diabetic, nonsmokers, non-cancer).
(§3) Additionally, adipocytes from the obese donor were treated with about 10-100 nM NP627 (compound 513627) for about 24 h (n=3). Expression of PKCδI_F, PKCδI_C, PKCδVIII, and β-Actin (control) were analyzed using western blotting.
In general terms: Immunoblotting shows a protein as a band on a membrane.

The next data set has as its system Bxl-xS and caspase9a. The experiment in a line: PCR based expression of pro-apoptotic variants in adipocytes from obese donor. The data set is classed as cell-based, human. As to conditions: about 10 nM, about 24 h.
Description: as §2
Additionally, adipocytes from the obese donor were treated with about 10 nM of NP627 for about 24 h (n=3). Expression of Bxl-xL, Bxl-xS, caspase9a, andβ-actin (control) were analyzed using a PCR based technique (n=3).

For data set [5], the target named is T2, PKCδI. The experiment in a line: Western blot on adipocytes from obese donor, PKCδI cleavage. More on the design: adipocytes from the obese donor were treated with about 10-100 nM NP627; endogenous in cells; host or cells: primary human adipocytes from visceral adipose tissue of an obese donor. As to conditions: about 10-100 nM, about 24 h. It counts as cell-based.
Description: as §2, §3

Where [6] appears, read: both pre-adipocytes and mature adipocytes.

T2 sequence (Q05655 whole entry): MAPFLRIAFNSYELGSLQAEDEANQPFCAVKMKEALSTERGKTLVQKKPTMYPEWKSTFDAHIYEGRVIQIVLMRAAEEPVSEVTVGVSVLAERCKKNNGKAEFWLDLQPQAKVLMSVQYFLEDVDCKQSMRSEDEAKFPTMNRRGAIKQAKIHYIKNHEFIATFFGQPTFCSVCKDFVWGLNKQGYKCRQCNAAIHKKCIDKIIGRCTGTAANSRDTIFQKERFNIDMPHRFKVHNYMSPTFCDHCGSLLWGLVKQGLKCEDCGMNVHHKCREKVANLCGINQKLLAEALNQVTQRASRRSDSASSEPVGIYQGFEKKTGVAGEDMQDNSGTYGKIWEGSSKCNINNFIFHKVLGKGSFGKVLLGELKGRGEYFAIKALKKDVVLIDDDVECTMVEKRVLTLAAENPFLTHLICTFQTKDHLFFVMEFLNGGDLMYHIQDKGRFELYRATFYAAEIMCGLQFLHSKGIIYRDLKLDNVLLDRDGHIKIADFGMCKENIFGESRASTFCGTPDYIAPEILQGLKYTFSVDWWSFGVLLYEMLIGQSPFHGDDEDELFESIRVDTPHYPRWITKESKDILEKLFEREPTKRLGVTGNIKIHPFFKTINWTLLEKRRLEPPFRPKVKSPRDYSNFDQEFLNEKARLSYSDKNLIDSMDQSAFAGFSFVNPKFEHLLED
T1 sequence (P28867 whole entry): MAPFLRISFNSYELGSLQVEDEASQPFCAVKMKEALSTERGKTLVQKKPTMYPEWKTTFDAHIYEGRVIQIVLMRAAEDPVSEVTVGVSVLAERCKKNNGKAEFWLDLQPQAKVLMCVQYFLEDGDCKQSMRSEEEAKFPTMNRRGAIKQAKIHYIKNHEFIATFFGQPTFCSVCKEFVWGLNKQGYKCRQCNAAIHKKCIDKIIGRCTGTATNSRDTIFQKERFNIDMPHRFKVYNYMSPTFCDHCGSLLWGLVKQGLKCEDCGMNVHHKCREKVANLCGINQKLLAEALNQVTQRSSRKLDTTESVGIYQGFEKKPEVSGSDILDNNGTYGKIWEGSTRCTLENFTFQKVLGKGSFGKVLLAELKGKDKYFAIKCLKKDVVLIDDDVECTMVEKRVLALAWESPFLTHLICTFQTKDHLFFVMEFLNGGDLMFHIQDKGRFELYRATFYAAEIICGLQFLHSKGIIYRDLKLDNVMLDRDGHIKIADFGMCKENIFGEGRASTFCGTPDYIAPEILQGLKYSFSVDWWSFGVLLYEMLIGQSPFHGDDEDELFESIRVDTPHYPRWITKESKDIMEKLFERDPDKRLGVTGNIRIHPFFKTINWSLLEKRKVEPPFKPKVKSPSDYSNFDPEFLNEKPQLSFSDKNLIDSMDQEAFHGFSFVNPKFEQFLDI
T3 sequence (Q05655 1-707 isoform Q05655-2): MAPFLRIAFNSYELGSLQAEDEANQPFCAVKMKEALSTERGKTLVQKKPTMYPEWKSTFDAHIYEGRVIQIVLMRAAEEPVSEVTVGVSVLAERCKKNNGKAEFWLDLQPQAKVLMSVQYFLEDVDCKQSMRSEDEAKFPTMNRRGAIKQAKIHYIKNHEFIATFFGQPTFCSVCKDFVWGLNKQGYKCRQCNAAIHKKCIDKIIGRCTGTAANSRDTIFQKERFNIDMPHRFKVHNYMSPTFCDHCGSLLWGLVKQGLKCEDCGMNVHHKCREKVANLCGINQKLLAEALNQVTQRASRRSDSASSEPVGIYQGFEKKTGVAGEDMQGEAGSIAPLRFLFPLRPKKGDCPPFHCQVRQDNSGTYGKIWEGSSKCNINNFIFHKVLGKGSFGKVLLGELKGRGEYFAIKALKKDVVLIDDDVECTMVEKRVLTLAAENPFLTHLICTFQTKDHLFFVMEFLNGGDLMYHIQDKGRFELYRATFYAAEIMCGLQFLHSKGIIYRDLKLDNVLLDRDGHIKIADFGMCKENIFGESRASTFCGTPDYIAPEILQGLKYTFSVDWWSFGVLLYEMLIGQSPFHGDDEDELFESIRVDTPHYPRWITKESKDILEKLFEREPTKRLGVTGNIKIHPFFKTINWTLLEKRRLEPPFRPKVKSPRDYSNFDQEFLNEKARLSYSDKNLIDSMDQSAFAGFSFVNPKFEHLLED

Turning to `N=C(CCN1C(=O)c2ccccc2C1=O)NNC(=O)CCCC(=O)NNC(=N)CCN1C(=O)c2ccccc2C1=O` [compound 5139627, N′~1~,N′~5~-bis[3-(1,3-dioxo-1,3-dihydro-2H-isoindo1-2-yl)propanimidoyl]pentanedihydrazide], the “cleavage and release of the PKCδI catalytic domain” value at PKCδI [1] is “inhibit the cleavage and release”. At PKCδI [2], the “phosphorylation of myelin basic protein (PKCδI substrate)” value (shortened to “phosphorylation … (PKCδI substrate)”) is “decreased phosphorylation”; the “cleavage and release of the PKCδI catalytic domain” value was “inhibited the cleavage and release”. On PKCδI [3], the PKCδI activity result is on record as “specifically inhibit PKCδI activity”. Besides, at PKCδI [4], the “specificity for PKCδI (relative kinase activity)” value is on record as “specificity for PKCδI”. For the same compound, the “other PKC isozyme activities” value in the data set with other PKCs is given as “not inhibited”. Besides, in the data set with obese adipocytes, the “cellular toxicity (cell viability)” value is “did not appear to cause cellular toxicity”. The “PKCδVIII (alternatively spliced variant)” value on PKCδVIII was “not inhibited”. Also, in the data set on Bxl-xS and caspase9a, the “expression of Bxl-xS” value is reported as “decrease expression” and the “expression of caspase9a” value is recorded as “decrease expression”. The “cleavage of PKCδI” value on PKCδI [5] was “specifically inhibits cleavage of PKCδI”.
Regarding `CC(C)(O)C(=O)C=Cc1ccc2c(c1)OCO2` [compound 5320091, 1-(1,3-benzodioxol-5-yl)-4-hydroxy-4-methyl-1-penten-3-one], on PKCδI [1], the “phosphorylation … (PKCδI substrate)” value is “decreased phosphorylation”; the “cleavage and release of the PKCδI catalytic domain” value is “inhibit the cleavage and release”. Moreover, at PKCδI [2], the “phosphorylation … (PKCδI substrate)” value was “decreased phosphorylation”; the “cleavage and release of the PKCδI catalytic domain” value is “inhibited the cleavage and release”.
Regarding `OCCNc1cc(-c2cc(CO)ccn2)c2cc[nH]c2n1` [compound 28578828, 2-({4-[4-(hydroxymethyl)pyridin-2-yl]-1H-pyrrolo[2,3-b]pyridin-6-yl}amino)ethanol], the “phosphorylation … (PKCδI substrate)” value at PKCδI [1] and at PKCδI [2] was “decreased phosphorylation” throughout. Also, the “cleavage and release of the PKCδI catalytic domain” value is “inhibit the cleavage and release” on PKCδI [1]; “inhibited the cleavage and release” on PKCδI [2]. Also, the PKCδI activity result at PKCδI [3] is given as “specifically inhibit PKCδI activity”.
As to `CN(Cc1cnccn1)C(=O)c1cccc(C#CC(C)(C)O)c1` [compound 43844983, 3-(3-hydroxy-3-methylbut-1-yn-1-yl)-N-methyl-N-(pyrazin-2-ylmethyl)benzamide], at PKCδI [1], the “phosphorylation … (PKCδI substrate)” value was “decreased phosphorylation”; the “cleavage and release of the PKCδI catalytic domain” value is “inhibit the cleavage and release”. Moreover, at PKCδI [2] (setting [6]), the “inhibition of PKCδI cleavage” value is “completely inhibit” and the “inhibition of phosphorylation of MBP” value is given as “completely inhibit”. At PKCδI [2], the “phosphorylation … (PKCδI substrate)” value is reported as “decreased phosphorylation”; the “cleavage and release of the PKCδI catalytic domain” value was “inhibited the cleavage and release”.
On to `Cc1nc2c(c(N(C)C)n1)CCN(C(=O)[C@@H]1C[C@@H](O)CN1)C2` [compound 61397826, (3R,5S)-5-{[4-(dimethylamino)-2-methyl-5,8-dihydropyrido[3,4-d]pyrimidin-7(6H)-yl]carbonyl}-3-pyrrolidinol], for which, on PKCδI [1], the “phosphorylation … (PKCδI substrate)” value was “decreased phosphorylation”; the “cleavage and release of the PKCδI catalytic domain” value was “inhibit the cleavage and release”. At PKCδI [2], the “phosphorylation … (PKCδI substrate)” value is “decreased phosphorylation”; the “cleavage and release of the PKCδI catalytic domain” value is “inhibited the cleavage and release”.
Regarding `CCN(C/C=C/c1ccccc1)C(=O)CCc1nc2ccccc2[nH]1` [compound 72950115, 3-(1H-benzimidazol-2-yl)-N-ethyl-N-[(2E)-3-phenylprop-2-en-1-yl]propanamide], on PKCδI [1], the “phosphorylation … (PKCδI substrate)” value is reported as “decreased phosphorylation”; the “cleavage and release of the PKCδI catalytic domain” value is “inhibit the cleavage and release”. Further, at PKCδI [2], the “phosphorylation … (PKCδI substrate)” value was “decreased phosphorylation”; the “cleavage and release of the PKCδI catalytic domain” value was “inhibited the cleavage and release”.
